Results reported in paper doi:10.1101/2022.11.24.517821v4 (biorxiv, 2022).
Read-outs that look alike come from different tables or passages of the source.

How the values were obtained:
[1] = target: T1, TAS2R14 (Homo sapiens, UniProt Q9NYV8); test: IP-One HTRF IP1 accumulation, HEK293T with Galpha-qi5; format: cell-based
T1 sequence (Q9NYV8 1-317): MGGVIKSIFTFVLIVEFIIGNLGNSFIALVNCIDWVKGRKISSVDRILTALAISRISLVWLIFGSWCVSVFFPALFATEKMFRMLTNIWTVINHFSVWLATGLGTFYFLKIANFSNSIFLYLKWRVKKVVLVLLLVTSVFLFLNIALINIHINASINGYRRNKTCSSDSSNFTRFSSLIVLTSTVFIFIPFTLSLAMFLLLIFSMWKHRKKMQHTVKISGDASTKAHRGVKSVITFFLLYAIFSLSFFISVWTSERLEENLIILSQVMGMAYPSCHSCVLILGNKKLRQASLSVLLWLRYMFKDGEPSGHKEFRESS

[2] = target: T1, TAS2R14; test: as above; format: cell-based; conditions: antagonist mode, […] min pre-incubation, against […] flufenamic acid, […] °C
[3] = target: T1, TAS2R14; test: cell-based; parameters: species or system HEK293T; conditions: HEK-293T, read-out: Emax[%flu acid]
[4] = target: T1, TAS2R14; test: cell-based; parameters: species or system HEK293T

SMILES	IC50 [1] [µM]	IC50 [2]	Emax [3] [%]	EC50 [4] [nM]
O=C(Nc1ccccc1C(=O)O)c1ccc(OC(F)(F)F)cc1 [LF1]	6.8 ± 3.2	–	–	–
Cc1[nH]nc(C(=O)Nc2ccc(C3CCC(F)(F)CC3)cc2)c1C(=O)O [LF14]	22 ± 16	–	–	–
O=C(c1cc(O)cc(C(F)(F)F)c1)N1CC(c2ccccc2)C1CO (centres unmarked) [LF22]	7.2 ± 3	–	–	–
O=C(O)c1cc(I)ccc1Nc1cccc(C(F)(F)F)c1 [LW118]	–	A derivative of flufenamic acid (LW118)	–	–
NS(=O)(=O)c1ccccc1Nc1cccc(OCc2ccccc2)c1 [lw19a]	–	–	100	65000 ± 25000
COC(=O)c1ccccc1Nc1cccc(C(F)(F)F)c1 [lw50]	–	–	47 ± 23	5300 ± 3200
O=C(O)c1ccccc1Nc1cccc(OC(F)(F)F)c1 [lw057]	–	–	101 ± 5	250 ± 60
FC(F)(F)Oc1cccc(Nc2ccccc2-c2nnn[nH]2)c1 [lw070]	–	–	72 ± 13	190 ± 70
FS(F)(F)(F)(F)c1cccc(Nc2ccccc2-c2nnn[nH]2)c1 [lw071]	–	–	48 ± 3	230 ± 90
Clc1cccc(Nc2ccccc2-c2nnn[nH]2)c1 [lw072]	–	–	67 ± 6	170 ± 70
O=C(O)c1ccccc1Nc1ccc(Cl)c(C(F)(F)F)c1 [lw076]	–	–	67 ± 9	200 ± 50
COc1cc(Nc2ccccc2C(=O)O)cc(C(F)(F)F)c1 [lw077]	–	–	87 ± 5	200 ± 60
FC(F)Oc1cccc(Nc2ccccc2-c2nnn[nH]2)c1 [lw083]	–	–	77 ± 5	200 ± 20
FC(F)(F)c1cc(Nc2ccccc2-c2nnn[nH]2)ccc1Cl [lw084]	–	–	59 ± 1	190 ± 20
COc1cc(Nc2ccccc2-c2nnn[nH]2)cc(C(F)(F)F)c1 [lw085]	–	–	98 ± 3	80 ± 20
Cc1c(Nc2ccccc2-c2nnn[nH]2)cccc1C(F)(F)F [lw086]	–	–	70 ± 4	290 ± 50
O=C(O)c1ccccc1Nc1ccc(N2CCOCC2)c(C(F)(F)F)c1 [lw101]	–	–	44 ± 5	2000 ± 490
O=C(O)c1ccccc1Nc1cc(OC2CC2)cc(C(F)(F)F)c1 [lw103]	–	–	64 ± 3	310 ± 50
O=C1COc2c(cc(C(F)(F)F)cc2Nc2ccccc2C(=O)O)N1 [lw104]	–	–	74 ± 8	1800 ± 180

SMILES	IC50 [1] [µM]	IC50 [2]	Emax [3] [%]	EC50 [4] [nM]
O=C(O)c1ccccc1Nc1cc(OCc2ccccc2)cc(C(F)(F)F)c1 [lw105]	–	–	66 ± 14	1700 ± 350
Cc1ccc(C(F)(F)F)cc1Nc1ccccc1-c1nnn[nH]1 [lw113]	–	–	90 ± 5	310 ± 92
FC(F)(F)c1cc(Nc2ccccc2-c2nnn[nH]2)ccc1N1CCOCC1 [lw114]	–	–	50 ± 7	190 ± 20
O=C(O)c1ccccc1Nc1cc([N+](=O)O)cc(C(F)(F)F)c1 [lw119]	–	–	67 ± 8	190 ± 50
Cc1cn(-c2cc(Nc3ccccc3C(=O)O)cc(C(F)(F)F)c2)cn1 [lw122]	–	–	51 ± 11	3700 ± 1200
COc1cc(Nc2ccc(Cl)cc2-c2nnn[nH]2)cc(C(F)(F)F)c1 [lw128]	–	–	26 ± 4	580 ± 180
O=[N+](O)c1cc(Nc2ccccc2-c2nnn[nH]2)cc(C(F)(F)F)c1 [lw130]	–	–	80 ± 8	730 ± 150
COC(=O)c1cc(Nc2ccccc2C(=O)O)cc(C(F)(F)F)c1 [lw153]	–	–	73 ± 5	780 ± 250
NC(=O)c1cc(Nc2ccccc2C(=O)O)cc(C(F)(F)F)c1 [lw154]	–	–	127 ± 13	7200 ± 1000
O=C(O)c1ccccc1Nc1cc(N2CCOCC2)cc(C(F)(F)F)c1 [lw167]	–	–	41 ± 18	700 ± 400
COC(=O)c1cc(Nc2ccccc2-c2nnn[nH]2)cc(C(F)(F)F)c1 [lw169]	–	–	97 ± 4	640 ± 140
NC(=O)c1cc(Nc2ccccc2-c2nnn[nH]2)cc(C(F)(F)F)c1 [lw183]	–	–	86 ± 8	6000 ± 1300
FC(F)(F)c1cc(Nc2ccccc2-c2nnn[nH]2)cc(OC2CC2)c1 [lw190]	–	–	68 ± 4	430 ± 75
Cc1cc(Nc2ccccc2-c2nnn[nH]2)cc(C(F)(F)F)c1 [lw201]	–	–	81 ± 7	590 ± 250
O=C(O)c1cc([N+](=O)[O-])ccc1Nc1cccc(C(F)(F)F)c1 [lw205]	–	–	82 ± 4	270 ± 75
NC(=O)c1ccccc1Nc1cccc(C(F)(F)F)c1 [lw208]	–	–	34 ± 4	11000 ± 750
O=Cc1ccc(Cl)cc1Nc1ccccc1C(=O)O [lw231]	–	–	97 ± 7	3300 ± 460
COC(=O)c1cccc(C(=O)O)c1Nc1cccc(C(F)(F)F)c1 [lw253]	–	–	42 ± 4	480 ± 110
O=C(O)c1ccccc1Nc1cc(C#CC2CC2)cc(C(F)(F)F)c1 [lw271]	–	–	57 ± 7	460 ± 79

SMILES	IC50 [1] [µM]	IC50 [2]	Emax [3] [%]	EC50 [4] [nM]
CCCCc1cc2cccc(C(=O)O)c2n1-c1cccc(C(F)(F)F)c1 [lw273]	–	–	62 ± 6	8300 ± 2400
Oc1cc(-c2ccccc2Nc2cccc(C(F)(F)F)c2)on1 [lw306]	–	–	38 ± 4	3100 ± 1800
CCCCC#Cc1ccc(Nc2ccccc2C(=O)O)cc1C(F)(F)F [lw308]	–	–	87 ± 7	4400 ± 1600
CC#Cc1ccc(Nc2ccccc2C(=O)O)cc1C(F)(F)F [lw310]	–	–	89 ± 3	380 ± 52
CCCCCNC(=O)c1ccc(Nc2ccccc2C(=O)O)cc1C(F)(F)F [lw317]	–	–	66 ± 17	30000 ± 19000
FC(F)(F)c1cc(-c2ccccc2)nc(Nc2ccccc2-c2nnn[nH]2)n1 [lw341]	–	–	118 ± 16	1100 ± 320
COc1ccc(Nc2ccccc2C(=O)O)cc1OCc1ccc(Cl)cc1 [lwbk19]	–	–	70 ± 11	1200 ± 300
COc1ccc(Nc2ccccc2C(=O)O)cc1OCc1cccc(F)c1 [lwbk20]	–	–	89 ± 4	1400 ± 500
COc1cccc(COc2cc(Nc3ccccc3C(=O)O)ccc2OC)c1 [lwbk21]	–	–	88 ± 10	2100 ± 1100
O=C(O)c1ccccc1Nc1cc(C(F)(F)F)cc(C(F)(F)F)c1Cl [lwjk05]	–	–	84 ± 1	150 ± 20
FC(F)(F)c1cc(Nc2ccccc2-c2nnn[nH]2)c(Cl)c(C(F)(F)F)c1 [lwjk06]	–	–	97 ± 8	170 ± 20
Cc1ccc(Nc2ccccc2C(=O)O)cc1OCc1ccc(Cl)cc1 [lwlb17]	–	–	70 ± 10	1300 ± 180
COc1cccc(COc2cc(Nc3ccccc3C(=O)O)ccc2C)c1 [lwlb18]	–	–	54 ± 14	1500 ± 500
Cc1ccc(Nc2ccccc2C(=O)O)cc1OCc1cccc(F)c1 [lwlb19]	–	–	70 ± 6	1900 ± 940
O=C(O)c1ccccc1Nc1cccc(OCc2ccc(Cl)cc2)c1 [lwmr04]	–	–	64 ± 2	1100 ± 180
COc1cccc(COc2cccc(Nc3ccccc3C(=O)O)c2)c1 [lwmr05]	–	–	70 ± 6	740 ± 120
O=C(O)c1ccccc1Nc1cccc(OCc2cccc(F)c2)c1 [lwmr06]	–	–	71 ± 4	420 ± 50
FC(F)(F)c1cccc(Nc2ccccc2-c2cnoc2)c1 [lwph005]	–	–	50 ± 1	12000 ± 8900
FC(F)(F)c1cccc(Nc2ccccc2-c2cnn[nH]2)c1 [lwtp009]	–	–	48 ± 1	12000 ± 1400
